In brackets after ≈: the same amount, converted by molar mass. Several values for one entry are separate records, joined by “and”; a condition that tells them apart may be missing. Identical values can stand only once. Like-named read-outs stand apart in the source and are kept apart here.
How the values were obtained:
HIV-1IIIB (C8166 cells) = test: Anti-HIV activity in C8166 cells; type: cell-based; details: for TI: TI(CC50/EC50)
Experimental: (§1) The anti-HIV activity was determined by the "Guiding Principles of Anti HIV Drug Unclinical Pharmacodynamics" of SFDA which is tested by technology standard assay according to International Universal Standards and Methods. Where in CC50, EC50 were measured twice and took the average.

HIV-1IIIB(H9 cells) = test: Anti-HIV activity in H9 cells; type: cell-based; details: for TI: TI(CC50/EC50)
Experimental: as §1

HIV-2 ROD = test: Anti-HIV-2 activity and cytotoxicity; type: cell-based
HIV-2 CBL-20 = test: Anti-HIV-2 activity and cytotoxicity; type: cell-based
[1] = Pharmacokinetics: metabolism of 67 to 46, blood concentration and bioavailability; type: in vivo; details: after oral gavage of 67 by 100mg/kg
Acute toxicity test = type: in vivo; details: for safety at a high dose: high dose (10g/kg); for acute toxicity test: in vivo
HIV-1A17 = details: HIV-1A17, NVP resistant
Experimental: as §1

HIVKM018 = details: HIVKM018, clinical strain
Experimental: as §1

HIV-1TC-1 = details: HIV-1TC-1, clinical strain
Experimental: as §1

C8166 cells = test: Cytotoxicity in C8166 cells (CC50); type: cell-based, human; details: measured twice, average
Experimental: as §1

H9 cells = test: Cytotoxicity in H9 cells (CC50); type: cell-based, human; details: measured twice, average
Experimental: as §1

[2] = Human immunodeficiency virus 1, C8166 cells, HIV-1IIIB, measured twice, average, read-out: EC50
[3] = Human immunodeficiency virus 1, H9 cells, HIV-1IIIB, measured twice, average, read-out: EC50
[4] = H9 cells, HIV-1IIIB, measured twice, average

| Compound | EC50 (HIV-1IIIB (C8166 cells); [2]) | EC50 (HIV-1IIIB(H9 cells); [3]) | other results |
| --- | --- | --- | --- |
| COc1ccccc1NC(=O)c1c(NS(=O)(=O)c2ccccc2)cccc1S(=O)(=O)c1ccc([N+](=O)[O-])cc1 [compound 61, N-(2-methoxyphenyl)-2-((4-nitrophenyl)sulfonyl)-6-(phenylsulfonamido)benzamide] | 46.9 µg/mL (≈ 82.7 µM) | > 200 µg/mL |  |
| COc1ccccc1NC(=O)c1c(N)cccc1S(=O)(=O)c1ccc(C(=O)O)cc1 [compound 77, 4-((3-amino-2-((2-methoxyphenyl)carbamoyl)phenyl)sulfonyl)benzoic acid] | > 200 µg/mL | > 200 µg/mL |  |
| COc1ccccc1NC(=O)c1c(NCC(N)=O)cccc1Sc1ccc([N+](=O)[O-])cc1 [compound 82, 2-((2-amino-2-oxoethyl)amino)-N-(2-methoxyphenyl)-6-((4-nitrophenyl)thio)benzamide] | > 200 µg/mL | > 200 µg/mL |  |
| COc1ccccc1NC(=O)c1c(N)cccc1Sc1ccc(C(=O)O)cc1 [compound 76, 4-((3-amino-2-((2-methoxyphenyl)carbamoyl)phenyl)thio)benzoic acid] | 92 µg/mL (≈ 233 µM) | 100 µg/mL (≈ 254 µM) |  |
| COc1ccccc1NC(=O)c1c(NC(=O)CN)cccc1S(=O)(=O)c1ccc([N+](=O)[O-])cc1.Cl.Cl [compound 67, 2-(2-aminoacetamido)-N-(2-methoxyphenyl)-6-((4-nitrophenyl)sulfonyl)benzamide hydrochloride hydrochloride] | 0.43 µg/mL | 0.12 µg/mL | TI (HIV-1IIIB (C8166 cells); C8166 cells): 388.04; TI (HIV-1IIIB(H9 cells); H9 cells): 790.58; TI (HIV-2 ROD): 161.78; TI (HIV-2 CBL-20): 87.82; max blood concentration of 46 [1]: 21.662 µg/mL; safety at a high dose (Acute toxicity test): very safe; acute toxicity test (Acute toxicity test): no abnormal phenomenon occurred |
| COc1ccccc1NC(=O)c1c(NC(=O)C(N)CCCCN)cccc1Sc1ccc([N+](=O)[O-])cc1.Cl (centres unmarked) [compound 68, 2-(2,6-diaminohexanamido)-N-(2-methoxyphenyl)-6-((4-nitrophenyl)thio)benzamide hydrochloride] | 0.94 µg/mL | 2.38 µg/mL | TI (HIV-1IIIB (C8166 cells); C8166 cells): 122.45; TI (HIV-1IIIB(H9 cells); H9 cells): 37.85 |
| COc1ccccc1NC(=O)c1c(NCCN)cccc1Sc1ccc([N+](=O)[O-])cc1 [compound 78, 2-((2-aminoethyl)amino)-N-(2-methoxyphenyl)-6-((4-nitrophenyl)thio)benzamide] | 16.9 µg/mL (≈ 38.6 µM) | 19.9 µg/mL (≈ 45.4 µM) |  |
| COc1ccccc1NC(=O)c1c(N(C)C)cccc1S(=O)(=O)c1ccc([N+](=O)[O-])cc1 [compound 58, 2-(dimethylamino)-N-(2-methoxyphenyl)-6-((4-nitrophenyl)sulfonyl)benzamide] | 100 µg/mL (≈ 219 µM) | 103 µg/mL (≈ 226 µM) |  |
| COc1ccccc1NC(=O)c1cc(C(F)(F)F)ccc1Sc1ccc([N+](=O)[O-])cc1 [compound 22, N-(2-methoxyphenyl)-2-((4-nitrophenyl)thio)-5-(trifluoromethyl)benzamide] | > 200 µg/mL | > 200 µg/mL |  |
| CNc1cccc(S(=O)(=O)c2ccc([N+](=O)[O-])cc2)c1C(=O)Nc1ccccc1OC [compound 59, N-(2-methoxyphenyl)-2-(methylamino)-6-((4-nitrophenyl)sulfonyl)benzamide] | 63.7 µg/mL (≈ 144 µM) | 123 µg/mL (≈ 278 µM) |  |
| Nc1cccc(Sc2ccc([N+](=O)[O-])cc2)c1C(=O)Nc1ccccc1I [compound 71, 2-amino-N-(2-iodophenyl)-6-((4-nitrophenyl)thio)benzamide] | 61.4 µg/mL (≈ 125 µM) | > 200 µg/mL |  |
| COc1ccccc1NC(=O)c1cc(N)ccc1Sc1ccc([N+](=O)[O-])cc1 [compound 24, 5-amino-N-(2-methoxyphenyl)-2-((4-nitrophenyl)thio)benzamide] | 2.59 µg/mL (≈ 6.55 µM) | 2.62 µg/mL (≈ 6.63 µM) |  |
| Nc1cccc(S(=O)(=O)c2ccc([N+](=O)[O-])cc2)c1C(=O)Nc1ccccc1I [compound 72, 2-amino-N-(2-iodophenyl)-6-((4-nitrophenyl)sulfonyl)benzamide] | 16.2 µg/mL (≈ 30.9 µM) | 193 µg/mL (≈ 368 µM) |  |
| COc1ccccc1NC(=O)c1c(N)cccc1Oc1ccc([N+](=O)[O-])cc1 [compound 48, 2-amino-N-(2-methoxyphenyl)-6-(4-nitrop-henoxy)benzamide] |  |  | EC50 (HIV-1IIIB(H9 cells); [4]): 35.87 µg/mL (≈ 94.6 µM) |
| COc1ccccc1NC(=O)c1c(NCP(=O)(OC(C)C)OC(C)C)cccc1Sc1ccc([N+](=O)[O-])cc1 [compound 65, diisopropyl(((2-((2-methoxyphenyl)carbamoyl)-3-((4-nitro-phenyl)thio)phenyl)amino)methyl)phosphonate] |  |  | TI (HIV-1IIIB (C8166 cells); C8166 cells): 0.18; EC50 (HIV-1IIIB (C8166 cells); Human immunodeficiency virus 1, C8166): 106 µg/mL (≈ 184 µM); TI (HIV-1IIIB(H9 cells); H9 cells): 0.13; EC50 (HIV-1IIIB(H9 cells); Human immunodeficiency virus 1, H9): > 200 µg/mL |
| COc1ccccc1NC(=O)c1c(N)cccc1S(=O)(=O)c1ccc([N+](=O)[O-])cc1 [compound 46, 2-amino-N-(2-methoxyphenyl)-6-((4-nitroph-enyl)sulfonyl)benzamide] |  |  | TI (HIV-1IIIB (C8166 cells); C8166 cells): 2081.59 and 2018.59; TI (HIV-1IIIB(H9 cells); H9 cells): >303.03; safety at a high dose (Acute toxicity test): very safe; acute toxicity test (Acute toxicity test): no abnormal phenomenon occurred; TI(CC50/EC50) (HIV-1A17): >20; TI(CC50/EC50) (HIVKM018): >31.65; TI(CC50/EC50) (HIV-1TC-1): >1818.18 |
| COc1ccccc1NC(=O)c1c(NC(=O)C(N)Cc2ccccc2)cccc1S(=O)(=O)c1ccc([N+](=O)[O-])cc1 (centres unmarked) [compound 83, 2-(2-amino-3-phenylpropanamido)-N-(2-methoxyphenyl)-6-((4-nitrophenyl)sulfonyl)benzamide] | 0.45 µg/mL (≈ 0.783 µM) | 0.15 µg/mL (≈ 0.261 µM) |  |
| 5-(dimethylamino)-N-(2-methoxyphenyl)-2-((4-nitrophenyl)thio)benzamide [compound 28] |  |  | CC50 (C8166 cells): 93.04 µg/mL; EC50 (HIV-1IIIB (C8166 cells); C8166 cells, HIV-1IIIB, measured twice, average): 83.84 µg/mL; CC50 (H9 cells): 77.23 µg/mL; EC50 (HIV-1IIIB(H9 cells); [4]): 98.45 µg/mL |

Source: patent EP2924021A1, “ANTI-HIV COMPOUND AND PREPARATION METHOD AND USE THEREOF” (priority 2012, dated 2014)
